According to the supplement of paper PMC10307832:

Key:
Assay in all cases: relative viability (nuclei count vs DMSO), 5 days (fraction); higher = more cells survive
AT9283 + Pemetrexed = compound: O=C(Nc1c[nH]nc1-c1nc2ccc(CN3CCOCC3)cc2[nH]1)NC1CC1 [AT9283] + Nc1nc2[nH]cc(CCc3ccc(C(=O)N[C@@H](CCC(=O)O)C(=O)O)cc3)c2c(=O)[nH]1 [Pemetrexed] (partner 0.2 µM)
How it was run: (§1)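 Dosing by pin tool came one day after lung cancer cell lines were seeded in 1536-well plates, using either one drug or a fixed anchor-drug dose plus five library-drug doses (not always all listed) in √10 steps. After 5 days, nuclei were counted on 4× images. Relative viability is treated-well nuclei count divided by vehicle-well nuclei count, and values are medians of duplicate plates.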

AT9283 + Luminespib = compound: O=C(Nc1c[nH]nc1-c1nc2ccc(CN3CCOCC3)cc2[nH]1)NC1CC1 [AT9283] + CCNC(=O)c1noc(-c2cc(C(C)C)c(O)cc2O)c1-c1ccc(CN2CCOCC2)cc1 [Luminespib] (partner 0.01 µM)
How it was run: as §1

Erlotinib + Foretinib = compound: C#Cc1cccc(Nc2ncnc3cc(OCCOC)c(OCCOC)cc23)c1 [Erlotinib] + COc1cc2c(Oc3ccc(NC(=O)C4(C(=O)Nc5ccc(F)cc5)CC4)cc3F)ccnc2cc1OCCCN1CCOCC1 [Foretinib] (partner 0.25 µM)
How it was run: as §1

AT9283 + Bortezomib = compound: O=C(Nc1c[nH]nc1-c1nc2ccc(CN3CCOCC3)cc2[nH]1)NC1CC1 [AT9283] + CC(C)C[C@H](NC(=O)[C@H](Cc1ccccc1)NC(=O)c1cnccn1)B(O)O [Bortezomib] (partner 0.002 µM)
How it was run: as §1

AT9283 + Foretinib = compound: O=C(Nc1c[nH]nc1-c1nc2ccc(CN3CCOCC3)cc2[nH]1)NC1CC1 [AT9283] + COc1cc2c(Oc3ccc(NC(=O)C4(C(=O)Nc5ccc(F)cc5)CC4)cc3F)ccnc2cc1OCCCN1CCOCC1 [Foretinib] (partner 0.25 µM)
How it was run: as §1

NCI-H441
relative viability (AT9283 + Pemetrexed; first compound 0.003 µM): 0.228
relative viability (AT9283 + Pemetrexed; first compound 0.03 µM): 0.274
relative viability (AT9283 + Pemetrexed; first compound 0.09487 µM): 0.25
relative viability (AT9283 + Pemetrexed; first compound 0.3 µM): 0.238
relative viability (AT9283 + Luminespib; first compound 0.003 µM): 0.432
relative viability (AT9283 + Luminespib; first compound 0.03 µM): 0.347
relative viability (AT9283 + Luminespib; first compound 0.09487 µM): 0.344
relative viability (AT9283 + Luminespib; first compound 0.3 µM): 0.263
relative viability (Erlotinib + Foretinib; first compound 0.02 µM): 1.01
relative viability (Erlotinib + Foretinib; first compound 0.2 µM): 1.02
relative viability (Erlotinib + Foretinib; first compound 0.6325 µM): 0.933
relative viability (Erlotinib + Foretinib; first compound 2 µM): 0.883
relative viability (AT9283 + Bortezomib; first compound 0.003 µM): 0.406
relative viability (AT9283 + Bortezomib; first compound 0.03 µM): 0.442
relative viability (AT9283 + Bortezomib; first compound 0.09487 µM): 0.536
relative viability (AT9283 + Bortezomib; first compound 0.3 µM): 0.381
relative viability (AT9283 + Foretinib; first compound 0.003 µM): 1.02
relative viability (AT9283 + Foretinib; first compound 0.03 µM): 0.847
relative viability (AT9283 + Foretinib; first compound 0.09487 µM): 0.396
relative viability (AT9283 + Foretinib; first compound 0.3 µM): 0.301
